Experimental data: article PMC5090206, “Fluselenamyl: A Novel Benzoselenazole Derivative for PET Detection of Amyloid Plaques (Aβ) in Alzheimer’s Disease” (Scientific Reports, 2016)

Experiment: Biodistribution studies of [18F]-9 in normal mice
Assay type: in vivo
Conditions: for Blood uptake / Bone uptake / Brain uptake / Heart uptake / Kidney uptake / Liver uptake / Lung uptake: tail-vein injection
Method: Uptake in brain and other critical organs was analyzed in terms of percent injected dose per gram of the tissue (%ID/g) SI Table 1. For in vivo imaging of Aβ plaques, the basic pharmacokinetic model in normal brains involves a high initial penetration of the agent, accompanied by facile clearance due to lack of a binding target. […] For comparison, brain uptake ratios of [^18F]-AV-45 (2 min/2 h) and [^18F]-Florbetaben (2 min/4 h) in normal mice are 4.07 (%ID/g (brain): 2 min: 7.33 ± 1.54; 2 h: 1.80 ± 0.07; 7.33/1.80; 4.07)[10] and 5.0 (%ID/g (brain): 2 min: 4.77; 4 h: 0.95; 4.77/0.95; 5.02)[46], respectively. […] For an agent to be able to serve as an Aβ-imaging agent, literature precedents indicate that brain uptake ratio (%ID/g; the earliest time–point; 2–5 min to that of the latest time point; typically for carbon-11; 30–60 min; and F-18, 2 h) of 3.5 or above could be considered as a benchmark for ability of a given agent to cross the blood-brain barrier. Additionally, the brain uptake of a given imaging agent is also a net function of several components, such as cerebral regional blood flow, BBB permeability, plasma radiotracer concentration, and free fractions of the radiotracer in plasma and in the brain. Furthermore, the lipophilicity of a given compound also reflects a critical physicochemical trait for neuroimaging radiotracers due to its direct relationship to membrane permeability, solubility in water, and entropic contribution to binding. Literature precedents indicate that lipophilic drugs readily cross the BBB, although other chemical characteristics, including the number of hydrogen bonds, molecular weight, polar surface area and molecular size are also known to be critical traits for passive transport. […] Conversely, radiotracers that are too lipophilic can also bind plasma proteins, undergo fast metabolism, while also contributing to high nonspecific binding, such as white matter. […] Additionally, the agent [^18F]-9 excreted from other critical organs over 2 h (SI, Table 1); a critical factor likely to result in favorable dosimetry; although slight defluorination as a function of time is also evident from bone accumulation; yet consistent with pharmacokinetic profiles of other FDA approved agents. For assessing directly the ability of radiotracer to traverse the BBB, [^18F]-9 (170 μCi) was injected into a 24 months old APP/PS1 transgenic mouse and its age-matched WT counterpart, and 30 min post tail-vein injection, the brains were removed, frozen, and sectioned for autoradiography (Fig. 7A–E). […] For ROI analysis of the PET signal in brain section autoradiograms of transgenic mouse (Fig. 7A) and its WT counterpart (Fig. 7D), we used measured count densities in cortex and amygdala target regions and compared them with that of hypothalamus as reference region with a low plaque density as determined by Aβ immunostaining (Fig. 7B). The target/reference ratio (mean ± SD) in the transgenic mouse was 1.88 ± 0.22 compared to 0.96 ± 0.12 in the WT control mouse (Fig. 7E). Since brain stem was also devoid of plaques, we also analyzed the above target regions using brain stem as a reference region, and observed target/reference value in the transgenic to be 0.89 ± 0.1 compared to 0.45 ± 0.07 in the WT mouse. […]
The count intensity (expressed as quantitative light unit (QL)/pixel2) was measured for each ROI after background subtraction, and target/reference ratios for Tg and WT brain were used to compare radiotracer uptake. The final figure was assembled in Adobe Photoshop CS3.
All animal procedures were approved by the Washington University Animal Studies Committee (Protocol # 20150147; Expiration 7/31/18). Thus, biodistribution studies were carried out in "accordance" with the approved guidelines. Pharmacokinetics of 18F-9 in brain and other critical tissues of normal male 12 week old BL6 (WT; 28-36 g) mice were determined as previously described 15. Briefly, 18F-9 (740 kBq) was […]

Question: What does the source list for CN(C)c1ncc(/C=C\c2nc3cc(OCC[18F])ccc3[se]2)cn1 [[^18F]-9]?
Answer: brain uptake clearance ratio superior to [18F]-AV-45 (healthy mice, 2 min/120 min): 1.3 fold; brain clearance ratio (%ID/g) 2 min/120 min (normal mice): 5.33; Blood uptake (normal mice, 2 min): 4.79 ± 0.33 % ID/g; Bone uptake (normal mice, 2 min): 1.15 ± 0.15 % ID/g; Brain uptake (normal mice, 2 min): 8.86 ± 0.32 % ID/g; Heart uptake (normal mice, 2 min): 8.56± 0.78 % ID/g; Kidney uptake (normal mice, 2 min): 14.93± 0.85 % ID/g; Liver uptake (normal mice, 2 min): 35.44 ± 2.52 % ID/g; Lung uptake (normal mice, 2 min): 10.07± 0.74 % ID/g; Blood uptake (normal mice, 60 min): 2.27 ± 0.06 % ID/g; Bone uptake (normal mice, 60 min): 3.88 ± 1.48 % ID/g; Brain uptake (normal mice, 60 min): 1.80 ± 0.02 % ID/g; Heart uptake (normal mice, 60 min): 2.15 ± 0.02 % ID/g; Kidney uptake (normal mice, 60 min): 2.52 ± 0.06 % ID/g; Liver uptake (normal mice, 60 min): 8.64 ± 0.15 % ID/g; Lung uptake (normal mice, 60 min): 2.23 ± 0.11 % ID/g; Blood uptake (normal mice, 120 min): 2.16 ± 0.03 % ID/g; Bone uptake (normal mice, 120 min): 6.08 ± 0.85 % ID/g; Brain uptake (normal mice, 120 min): 1.66 ± 0.01 % ID/g; Heart uptake (normal mice, 120 min): 1.92 ± 0.05 % ID/g; Kidney uptake (normal mice, 120 min): 2.12 ± 0.09 % ID/g; Liver uptake (normal mice, 120 min): 8.13 ± 0.12 % ID/g; Lung uptake (normal mice, 120 min): 1.98 ± 0.05 % ID/g
